In patent publication US4321384A, “Antihypertensive agents” (American Home Products Corporation, priority 1981, dated 1982):
Structures can show the parent of a compound that is named as a salt.

Legend:
[1] = tested on: spontaneously hypertensive rats; test: Systolic blood pressure lowering in spontaneously hypertensive rats; type: in vivo, rat
Protocol: The in vivo blood pressure lowering ability of the compounds of this invention was established by measuring the systolic pressure of spontaneously hypertensive rats with a Decker Caudal Plethysmograph or similar sensor device. The compound being tested is administered to groups of four rats and their blood pressure is read prior to compound administration and at 1.5 and 4 hours after compound administration. Depending upon the behavior of the compound being tested, the schedule of blood pressure readings and route of administration is modified. Initially the compounds are administered orally but where compound solubility is a factor, the compounds may be administered parenterally (i.e. i.p., i.m., s.c., i.v., etc.) as desired. The compounds of this invention were initially administered orally at a standard testing dose of 50 mg/kg.
The following examples illustrate the preparation of a representative number of compounds of this invention. After each example, the Ca^+2 antagonist activity of the compound is presented in terms of percent relaxation (P.R.) at the stated concentration. Similarly, the antihypertensive activity is reported in terms of millimeters mercury (mmHg) blood pressure (B.P.) reduction at the stated time post 50 mg/kg oral dosing.

rabbit aortic strips [2] = test: Ca+2 antagonism: relaxation of potassium-contracted rabbit aortic strips; type: cell-based; conditions: Oryctolagus cuniculus; 10^-5 M bath concentration; strips contracted with 100 millimoles potassium ion; read-out: percent relaxation (P.R.)
Protocol: After a stable active tension has developed in the strip, as measured by Statham UC-2 force transducers and recorded on an eight channel Beckman Dynograph Polygraphic Recorder, an amount of the antagonist was added to the organ bath to make a 10^-5 molar concentration of antagonist. The […] effect, expressed as percent relaxation, was taken from the mean of at least two experiments. […] A Ca^+2 antagonist producing a 20 percent relaxation of aortic tissue in this test procedure at a 10^-5 molar bath concentration of the antagonist, generally produces a significant reduction in blood pressure when a sufficient amount is given to the spontaneously hypertensive rat. The following examples illustrate the preparation of a representative number of compounds of this invention. After each example, the Ca^+2 antagonist activity of the compound is presented in terms of percent relaxation (P.R.) at the stated concentration. Similarly, the antihypertensive activity is reported in terms of millimeters mercury (mmHg) blood pressure (B.P.) reduction at the stated time post 50 mg/kg oral dosing.

rabbit aortic strips [3] = test: as above; type: cell-based; conditions: Oryctolagus cuniculus; 10^-6 M bath concentration; strips contracted with 100 millimoles potassium ion; read-out: percent relaxation (P.R.)
[4] = 1.5 hours post 50 mg/kg oral dosing
[5] = 4 hours post 50 mg/kg oral dosing

Row | Structure (SMILES) | blood pressure (B.P.) reduction [1, 4] | blood pressure (B.P.) reduction [1, 5] | inhibition at 10 µM (rabbit aortic strips [2]) | inhibition at 1 µM (rabbit aortic strips [3])
1 | COC(=O)C1=C(C)NC2=C(C(=O)CN(C)C2)C1c1ccccc1[N+](=O)[O-] (stereo not shown) [Example 1, 1,4,5,6,7,8-Hexahydro-2,7-dimethyl-4-(2-nitrophenyl)-5-oxo-1,7-naphthyridine-3-carboxylic acid methyl ester] | -27 mmHg | -21 mmHg | 14% | –
2 | COC(=O)C1=C(C)NC2=C(C(=O)CN(C)C2)C1c1ccccc1C (stereo not shown) [Example 2, 1,4,5,6,7,8-Hexahydro-2,7-dimethyl-4-(2-methylphenyl)-5-oxo-1,7-naphthyridine-3-carboxylic acid methyl ester] | -57 mmHg | -28 mmHg | 31% | –
3 | COC(=O)C1=C(C)NC2=C(C(=O)CN(Cc3ccccc3)C2)C1c1ccccc1C (stereo not shown) [Example 3, 1,4,5,6,7,8-Hexahydro-2-methyl-4-(2-methylphenyl)-5-oxo-7-(phenylmethyl)-1,7-naphthyridine-3-carboxylic acid methyl ester] | -23 mmHg | -41 mmHg | – | 90%
4 | COC(=O)C1=C(C)NC2=C(C(=O)CN(C)C2)C1c1ccccc1C(F)(F)F (stereo not shown) [Example 4, 1,4,5,6,7,8-Hexahydro-2,7-dimethyl-5-oxo-4-[2-(trifluoromethyl)-phenyl]-1,7-naphthyridine-3-carboxylic acid methyl ester] | -68 mmHg | -70 mmHg | 48% | –
5 | COC(=O)C1=C(C)NC2=C(C(=O)CN(Cc3ccccc3)C2)C1c1ccccc1C(F)(F)F (stereo not shown) [Example 5, 1,4,5,6,7,8-Hexahydro-2-methyl-5-oxo-7-(phenylmethyl)-4-[2-(trifluoromethyl)phenyl]-1,7-naphthyridine-3-carboxylic acid methyl ester] | – | – | – | 40%
6 | COC(=O)C1=C(C)NC2=C(C(=O)CN(C)C2)C1c1cccc([N+](=O)[O-])c1 (stereo not shown) [Example 6, 1,4,5,6,7,8-Hexahydro-2,7-dimethyl-4-(3-nitrophenyl)-5-oxo-1,7-naphthyridine-3-carboxylic acid methyl ester] | -85 mmHg | -47 mmHg | 35% | –
7 | COC(=O)C1=C(C)NC2=C(C(=O)CNC2)C1c1ccccc1C (stereo not shown) [Example 7, 1,4,5,6,7,8-Hexahydro-2-methyl-4-(2-methylphenyl)-5-oxo-1,7-naphthyridine-3-carboxylic acid:methyl ester] | -77 mmHg | -64 mmHg | 46% | –
8 | COC(=O)C1=C(C)NC2=C(C(=O)CN(C)C2)C1c1ccccc1Cl (stereo not shown) [Example 8, 4-(2-chlorophenyl)-1,4,5,6,7,8-Hexahydro-2,7-dimethyl-5-oxo-1,7-naphthyridine-3-carboxylic acid methyl ester] | -54 mmHg | -30 mmHg | 28.3% | –
9 | COC(=O)C1=C(C)NC2=C(C(=O)CN(C)C2)C1c1c(Cl)cccc1Cl (stereo not shown) [Example 9, 4-(2,6-Dichlorophenyl)-1,4,5,6,7,8-hexahydro-2,7-dimethyl-5-oxo-1,7-naphthyridine-3-carboxylic acid methyl ester] | -22 mmHg | -43 mmHg | 41.5% | –
10 | COC(=O)C1=C(C)NC2=C(C(=O)CN(Cc3ccccc3)C2)C1c1cccc([N+](=O)[O-])c1 (stereo not shown) [Example 10, 1,4,5,6,7,8-Hexahydro-2-methyl-4-(3-nitrophenyl)-5-oxo-7-(phenylmethyl)-1,7-naphthyridine-3-carboxylic acid methyl ester] | – | – | – | 89.7%
11 | COC(=O)C1=C(C)NC2=C(C(=O)CN(C)C2)C1c1cc(C)ccc1C (stereo not shown) [Example 11, 4-(2,5-Dimethylphenyl)-1,4,5,6,7,8-hexahydro-2,7-dimethyl-5-oxo-1,7-naphthyridine-3-carboxylic acid methyl ester] | – | – | 22% | –
12 | COC(=O)C1=C(C)NC2=C(C(=O)CNC2)C1c1ccccc1C(F)(F)F (stereo not shown) [Example 12, 1,4,5,6,7,8-Hexahydro-2-methyl-5-oxo-4-[2-(trifluoromethyl)phenyl]-1,7-naphthyridine-3-carboxylic acid methyl ester] | -88 mmHg | – | 89.1% | –
13 | COC(=O)C1=C(C)NC2=C(C(=O)CN(Cc3ccccc3)C2)C1c1cccc(C(F)(F)F)c1 (stereo not shown) [Example 14 intermediate, 1,4,5,6,7,8-hexahydro-2-methyl-5-oxo-7-(phenylmethyl)-4-[3-(trifluoromethyl)phenyl]-1,7-naphthyridine-3-carboxylic acid methyl ester hydrochloride] | – | – | – | 46.2%
14 | COC(=O)C1=C(C)NC2=C(C(=O)CNC2)C1c1cccc(C(F)(F)F)c1 (stereo not shown) [Example 14, 1,4,5,6,7,8-Hexahydro-2-methyl-5-oxo-4-[3-(trifluoromethyl)phenyl]-1,7-naphthyridine-3-carboxylic acid methyl ester] | -51 mmHg | -43 mmHg | 84% | –
15 | COC(=O)C1=C(C)NC2=C(C(=O)CN(Cc3ccccc3)C2)C1c1ccccc1F (stereo not shown) [Example 15 intermediate, 4-(2-fluorophenyl)-1,4,5,6,7,8-hexahydro-2-methyl-5-oxo-7-(phenylmethyl)-1,7-naphthyridine-3-carboxylic acid methyl ester hydrochloride] | – | – | – | 48%
16 | COC(=O)C1=C(C)NC2=C(C(=O)CNC2)C1c1ccccc1F (stereo not shown) [Example 15, 4-(2-Fluorophenyl)-1,4,5,6,7,8-hexahydro-2-methyl-5-oxo-1,7-naphthyridine-3-carboxylic acid methyl ester] | -45 mmHg | – | 54% | –
17 | COC(=O)C1=C(C)NC2=C(C(=O)CN(C)C2)C1c1cccc(C#N)c1 (stereo not shown) [Example 16, 4-(3-Cyanophenyl)-1,4,5,6,7,8-Hexahydro-2,7-dimethyl-5-oxo-1,7-naphthyridine-3-carboxylic acid methyl ester] | -53 mmHg | – | 66% | –
18 | COC(=O)C1=C(C)NC2=C(C(=O)CN(C)C2)C1c1cccc(C)c1C (stereo not shown) [Example 17, 4-(2,3-Dimethylphenyl)-1,4,5,6,7,8-hexahydro-2,7-dimethyl-5-oxo-1,7-naphthyridine-3-carboxylic acid methyl ester] | – | -40 mmHg | 54% | –
19 | CCCCc1ccccc1C1C(C(=O)OC)=C(C)NC2=C1C(=O)CN(Cc1ccccc1)C2 (stereo not shown) [Example 18, 4-[2-(n-butyl)phenyl]-1,4,5,6,7,8-Hexahydro-2-methyl-5-oxo-7-(phenylmethyl)-1,7-naphthyridine-3-carboxylic acid methyl ester] | – | – | – | 61%
20 | CCCCc1ccccc1C1C(C(=O)OC)=C(C)NC2=C1C(=O)CNC2 (stereo not shown) [Example 19, 4-[2-(n-butyl)phenyl]-1,4,5,6,7,8-hexahydro-2-methyl-5-oxo-1,7-naphthyridine-3-carboxylic acid methyl ester] | -24 mmHg | – | 49.2% | –
21 | COC(=O)C1=C(C)NC2=C(C(=O)CNC2)C1c1cccc(C)c1C (stereo not shown) [Example 21, 4-(2,3-dimethylphenyl)-1,4,5,6,7,8-hexahydro-2-methyl-5-oxo-1,7-naphthyridine-3carboxylic acid methyl ester] | -42 mmHg | -45 mmHg | 76.7% | –
22 | CC1=C(C(=O)OCCN(C)Cc2ccccc2)C(c2ccccc2C(F)(F)F)C2=C(CN(Cc3ccccc3)CC2=O)N1 (stereo not shown) [Example 22, 1,4,5,6,7,8-Hexahydro-2-methyl-5-oxo-7-phenylmethyl-4-[2-(trifluoromethyl)phenyl]-1,7-naphthyridine-3-carboxylic acid, 2-(N-benzyl-N-methylamino)ethylester] | -74 mmHg | -68 mmHg | – | 55.6%
